# Laboratory results published in US11278555B2, “Combinational therapies for treatment of cancer comprising a bacteriochlorophyll derivative” (Yeda Research and Development Co. Ltd., priority 2016, dated 2022).
# What was measured:
# [1] = system: Foxp3+ Treg, CD8+ T cells, G-MDSC/neutrophils; type: in vivo; settings: CTX treated vs only VTP
# Procedure: (§1) • (i) Bacteriochlorophyll Derivatives—The Bchl derivatives and RGD-conjugates thereof were provided by Steba Biotech (Rehovot, Israel). […] Concentration was verified by spectrophotometric measurement. STL-7012 was provided as dipotassium salt. Working solution was prepared by dissolving STL-7012 K^+ salt in 5% mannitol solution (1 mg/ml). […] WST11 was supplied as a powder and kept in the dark at −20° C. Stock was prepared by dissolving WST11 in DDW containing 5% glucose and 0.67% mannitol, aliquoted and lyophilized. Working solution was reconstituted with DDW and the concentration of solution was confirmed spectrophotometrically. Alternatively, Clinical WST11 (batch: P00611, and 10-130611) was supplied as lyophilized formulation. Material was dissolved in 5% dextrose, aliquoted and stored at −20° C. […] Aliquots were thawed, diluted with saline to a desired concentration and used on the same day at a dose of 75 mg/kg. Cyclophosphamide (CTX, Endoxan®, Baxter Oncology Gmbh, Germany) was purchased from a local pharmacy. A stock solution of 20 mg/ml was prepared by dissolving in 0.9% NaCl, aliquoted and stored at −20° C. Aliquots were thawed, diluted with saline if needed to a desired concentration and used on the same day prepared at indicated doses. • (iii) Murine cell lines—Mammary luciferase (luc)-labeled 4T1 cell line (4T1-Luc) was a kind gift from Dr. Zvi Granot (Faculty of Medicine, The Hebrew University of Jerusalem, Israel); melanoma B16-F10 cell line was obtained from the American Type Culture Collection (ATCC, Manassas, Va.); bladder MB49 cell line was a kind gift from James Allison (MSKCC, New York, USA), and luc-labeled MB49-cell line was established using the murine stem cell virus (MSCV)-puromycin-luc-GFP construct (kindly provided by Dr. Emily Cheng, Human Oncology and Pathogenesis Program, MSKCC). 4T1 and MB49 cells were maintained in DMEM medium and B16-F10 cells in RPMI medium supplemented with 1 mmol/L sodium pyruvate, 10% fetal calf serum (FCS), 250 μg/ml hygromycin, 0.06 mg/ml penicillin and 0.1 mg/ml streptomycin. The cells were grown as monolayer at 37° C. in a humidified atmosphere (5% CO2, 95% air). • (iv) Murine tumor models—Female, Balb/c mice (6-8 week old) were grafted either subcutaneously (s.c.) into the right hind leg or orthotopically with 1×10^6 4T1 cells suspended in 50 or 1000 PBS. […] Whole body imaging of luciferase-transfected tumors and metastases were recorded five minutes following 75 mg Kg^−1 intraperitoneal (i.p.) injection of D-luciferin with respective filter sets. • (vi) PDT treatment protocol: 4T1-Luc cells were grafted in the mammary pad of Balb/c mice. […] Ablation of primary tumors was assessed every 7 days by imaging the tumor's luciferase-mediated bioluminescence signal, using IVIS.
# [2] = system: s.c. 4T1-luc breast tumors; assay: WST11 VTP with or without single dose CTX in mice bearing s.c. 4T1-luc tumors in the hind leg (Scheme 4); type: in vivo, Balb/c mice
# Procedure: as §1
compound,measurement,setting,value
"CCC1c2cc3[n-]c(c(CC(=O)OC)c4nc(cc5[n-]c(cc(n2)C1C)c(C(C)=O)c5C)C(C)C4CCC(=O)[O-])c(C(=O)NCCS(=O)(=O)[O-])c3C.[K+].[K+].[Pd+2] (stereo not shown) [WST11, Palladium 3^1-oxo-15-methoxycarbonylmethyl-rhodobacteriochlorin 13^1-(2-sulfoethyl) amide dipotassium salt]",total cell numbers in draining lymph nodes and spleens after VTP,[1],decrease in cell counts
same,primary tumor growth,"[2]; CTX 50 or 150 mg/kg alone, WST11 VTP at low light intensity (100 mW/cm^2) alone, or combination",unable to suppress primary tumor growth
same,lung metastases,"[2]; VTP alone, even when primary tumor completely ablated",most of the mice subjected to VTP alone developed lung metastases
same,time to tumor regrowth,[2]; WST11 VTP at high light dose (150 mW/cm^2),doubled
